Test results taken from article PMC10326885, “Design of Heme Enzymes with a Tunable Substrate Binding Pocket Adjacent to an Open Metal Coordination Site” (Journal of the American Chemical Society, 2023).

Molecular target: T1, dnHEM1 (synthetic construct, UniProt Z9V042XZY6)
T1 construct: de novo alpha-helical closed solenoid (toroid) from designed scaffold PDB 4YXX, redesigned with Rosetta, surface desymmetrized by K29W and K165Y (already part of dnHEM1); expressed in E. coli; monomer
T1 sequence (Z9V042XZY6 1-210): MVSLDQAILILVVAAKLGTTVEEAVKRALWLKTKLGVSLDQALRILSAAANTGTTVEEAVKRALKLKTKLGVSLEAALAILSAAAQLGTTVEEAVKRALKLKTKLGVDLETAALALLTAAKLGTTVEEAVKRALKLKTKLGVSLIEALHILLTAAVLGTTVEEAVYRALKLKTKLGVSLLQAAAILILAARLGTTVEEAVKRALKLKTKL
Test: UV/Vis titration of hemin into apo-protein, absorbance at […] nm
Format: binding

How did the Kd turn out when `C=CC1=C(C)C2=Cc3c(C=C)c(C)c4[n]3[Fe]([Cl])[n]3c(c(C)c(CCC(=O)O)c3=CC3=NC(=C4)C(C)=C3CCC(=O)O)=CC1=N2` [hemin] was run?
Its Kd is 2.5 ± 1.2 nM.
